Publication PMC12362618, “Development of the First Small-Molecule Inhibitor Targeting Oncostatin M for Treatment of Breast Cancer” (Journal of Medicinal Chemistry, 2025)
Read-outs that look alike come from different tables or passages of the source.

What was measured:
[1] = tested on: OSM-mediated STAT3 phosphorylation in MCF-7 cells; assay: pSTAT3 ELISA in MCF-7 cells treated with OSM ± SMI; format: cell-based; settings: Homo sapiens, MCF7
Description: (§1) For phospho-STAT3 (pSTAT3) ELISAs, T47D MDA-MB-231, and MCF-7 cells were seeded in 12- or 24-well plates at 70–75% confluency and allowed to adhere overnight, after which cells were serum-starved with serum-free RPMI-1640 for 4 h. SMIs (10 μM in DMSO or serially diluted to specified concentrations from a 100 mM stock in DMSO) and human recombinant OSM (10 ng/mL; PeproTech; #300–10T-10UG) were incubated in serum-free RPMI-1640 medium for 1 h. After incubation, the SMI-10 analogs or SMI-10B13 and OSM were added to the serum-starved cells for 30 min. Immediately afterward, the cells were lysed using 1x PathScan Sandwich ELISA Lysis Buffer (Cell Signaling Technology; #7018S), collected, and stored at −20 °C. Lysates were analyzed for pSTAT3 levels using either the PathScan Phospho-STAT3 (Tyr705) Sandwich ELISA Antibody Pair kit (Cell Signaling Technology; #7146) or Human/Mouse Phospho-STAT3 (Y705) DuoSet IC ELISA (R&D Systems; DYC4607B), according to manufacture’s protocol. pSTAT3 expression was measured with absorbance at 450 nm and quantified by comparison relative to OSM-induced pSTAT3 levels. To calculate an IC50 for SMI-10B13, a standard curve was generated as described in the DuoSet IC ELISA datasheet to determine the concentration of pSTAT3.

[2] = tested on: OSM-induced pSTAT3 in MDA-MB-231 human breast cancer cells; assay: pSTAT3 ELISA in MDA-MB-231 cells treated with OSM ± SMI; format: cell-based; settings: SMI 10 μM, OSM 10 ng/mL, 30 min
Description: as §1, with “2 High-throughput virtual screening identifies three novel compounds capable of interacting with site III of OSM. […] (F) Structure of parent SMI-10. Data are presented as mean ± SD relative to + OSM treatment, analyzed by one-way ANOVA with Tukey’s posttest *p < 0.05, **p < 0.01. To test the effect of SMIs in vitro, each SMI was incubated with OSM for a period of 1 h at 37 °C, and T47D and MDA-MB-231 human breast cancer cell lines were subsequently treated with OSM (10 ng/mL) and/or SMI-10 (10 μM) analogs for 30 min and measured for pSTAT3 levels via ELISA. The results of these assays are presented graphically in Figure and, for T47D cells, in Table as a percentage of reduction from +OSM alone. For” for “For”

OSM = biological target: T1, OSM (Homo sapiens, UniProt P13725); set-up: method as in earlier report of the authors (Mass et al.); settings: binds to OSM's site III pocket; ref earlier report of the authors (Mass et al.); read-out: dissociation constant (KD), previously described; cited from earlier work
T1 sequence (P13725 26-252): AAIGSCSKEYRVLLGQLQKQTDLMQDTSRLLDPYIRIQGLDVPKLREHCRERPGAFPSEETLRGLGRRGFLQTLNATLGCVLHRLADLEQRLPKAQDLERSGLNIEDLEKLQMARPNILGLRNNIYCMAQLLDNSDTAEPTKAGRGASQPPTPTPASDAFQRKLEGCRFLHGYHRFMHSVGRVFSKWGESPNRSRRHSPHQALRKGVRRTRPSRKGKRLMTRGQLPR

[3] = Aqueous solubility (comparison in words); format: physicochemical; settings: compared to other analogs

Row | Compound | IC50 ([1]; Figure S3 graph B (MCF-7 by order), four parameter nonlinear regression, given as negative log value, read-out: LogIC50 (graph B) (converted)) [nM] | IC50 ([1]; MCF-7 cells, ELISA, read-out: IC50 for inhibition of STAT3 phosphorylation) [nM] | Inhibition of OSM-induced pSTAT3 via ELISA [2] | Kd (OSM) [nM] | Aqueous solubility [3]
1 | O=C(O)/C=C/c1cc(-c2ccc3cc[nH]c3c2)c(-c2ccc3cc[nH]c3c2)o1 [SMI-10B13, (E)-3-(4,5-di(1H-Indol-6-yl)furan-2-yl)acrylic Acid] | 164 | 164 | – | – | –
2 | O=C(O)/C=C/c1cc(-c2ccc3c(c2)OCO3)c(-c2ccc3c(c2)OCO3)o1 [SMI-10B, (E)-3-(4,5-Bis(benzo[d][1,3]dioxol-5-yl)furan-2-yl)acrylic acid] | – | – | capable of inhibiting OSM-induced pSTAT3 | < 13000 | increased aqueous solubility compared to other analogs
